Here are results for eight compounds from publication PMC7343616 (The FEBS journal, 2020).

One assay concerns the target wild-type PR. The conditions noted are these: read-out: Ki for PR, ref Park et al. 2016. Biochemistry [18]; cited from earlier work.
Another assay concerns PR^S17. As to conditions: Ki for mutant/Ki for wild-type; ref Park et al. 2016. Biochemistry [18]; cited from earlier work.
Assay [1] concerns the target PRS5B (Human immunodeficiency virus 1, UniProt P03367, A522V/A571V/C567A/C595A/E521D/E535N/G573T/I584V/L510I/L524M/M536I/N583D/Q507K/V511I, form not given). As to the kind of experiment: FRET-based enzyme kinetic inhibition assay. The class given is biochemical, HIV-1. The conditions noted are these: read-out: Ki for PRS5B; FRET substrate, 50 mM MES pH 5.6, 37°C; mean ± SD (n=3–5).

For a further assay, the system named is isolate with PRS5B. The conditions noted are these: ref Stanford HIV database; cited from earlier work.
The test system of assay [2] is PRS5B. As to the kind of experiment: FRET-based enzyme kinetic inhibition assay. The conditions noted are these: Ki for mutant/Ki for wild-type. The class given is biochemical, HIV-1.

Usually Ki stands for the equilibrium dissociation constant of an inhibitor or competing ligand from its target.

On to `CC(C)CN(C[C@@H](O)[C@H](Cc1ccccc1)NC(=O)O[C@H]1CCOC1)S(=O)(=O)c1ccc(N)cc1` [APV, amprenavir], for which the Ki at wild-type PR was 0.2 nM.
On to `COC(=O)N[C@H](C(=O)N[C@@H](Cc1ccccc1)[C@@H](O)CN(Cc1ccc(-c2ccccn2)cc1)NC(=O)[C@@H](NC(=O)OC)C(C)(C)C)C(C)(C)C` [ATV, atazanavir], for which the “PR^S17 Ki fold change” value in the assay with PR^S17 is 2,000 fold. In addition, the inhibition constant Ki on PRS5B [1] was 8.4 ± 0.9 nM; at wild-type PR, 0.035 nM.
For `CC(C)CN(C[C@@H](O)[C@H](Cc1ccccc1)NC(=O)O[C@H]1CO[C@H]2OCC[C@H]21)S(=O)(=O)c1ccc(N)cc1` [DRV, darunavir], the inhibitory constant (Ki) on wild-type PR was 0.005 nM.
Take `CC(C)(C)NC(=O)[C@@H]1CN(Cc2cccnc2)CCN1C[C@@H](O)C[C@@H](Cc1ccccc1)C(=O)N[C@H]1c2ccccc2C[C@H]1O` [IDV, indinavir]: at wild-type PR, the Ki is 0.25 nM.
With `Cc1cccc(C)c1OCC(=O)N[C@@H](Cc1ccccc1)[C@@H](O)C[C@H](Cc1ccccc1)NC(=O)[C@H](C(C)C)N1CCCNC1=O` [LPV, lopinavir], in the assay with isolate with PRS5B, the “resistance in PhenoSense assay” value is given as “significant resistance, although not the highest level”. Also, in the assay on PR^S17, the “PR^S17 Ki fold change” value is recorded as 3,650 fold. Further, the results for the Ki at PRS5B [1] and on wild-type PR were 160 ± 10 nM and 0.02 nM, respectively. Also, in the assay on PRS5B [2], the “PRS5B Ki fold change” value is on record as 8,000 fold.
`Cc1c(O)cccc1C(=O)N[C@@H](CSc1ccccc1)[C@H](O)CN1C[C@H]2CCCC[C@H]2C[C@H]1C(=O)NC(C)(C)C` [NFV, nelfinavir]: on wild-type PR, the Ki was 0.36 nM.
Regarding `CC(C)(C)NC(=O)[C@@H]1C[C@@H]2CCCC[C@@H]2CN1C[C@@H](O)[C@H](Cc1ccccc1)NC(=O)[C@H](CC(N)=O)NC(=O)c1ccc2ccccc2n1` [SQV, saquinavir], the inhibitory constant (Ki) on wild-type PR was 0.39 nM.
As for `CCC[C@@]1(CCc2ccccc2)CC(O)=C([C@H](CC)c2cccc(NS(=O)(=O)c3ccc(C(F)(F)F)cn3)c2)C(=O)O1` [TPV, tipranavir], at PRS5B [1], the Ki was determined as 8.6 ± 1.2 nM.
